Assay results: a melting point compilation (Tetko et al.)

| melting point [°C] | Compound |
| --- | --- |
| 44 | CCOC(=O)c1ccc(O)c(OC)c1 |
| 84 | CCOC(=O)c1sc(-c2cccc(N)c2)nc1C |
| 60 | CCC(=O)c1ccc2ccccc2c1 |
| 48 to 57 | CCOC(=O)CCC(=O)OC(C(=O)c1ccccc1)c1ccccc1 (configuration not stated) |
| 205 | NC(Cc1ccc(O)c(I)c1)C(=O)O (configuration not stated) |
| 98 to 99 | O=C(Cl)c1cccc2c1OCCO2 |
| 5 | Cc1cccc2[nH]ccc12 |
| 88 to 90 | O=C1OC(c2ccccc2)Cc2ccccc21 (configuration not stated) |
| 102 | O=[N+]([O-])c1cccc(C=Cc2ccccc2)c1 |
| 168 | O=C(O)CNC(=O)c1ccccc1O |
| 204 to 205 | CN(C)c1ccc(C=C2N=C(c3ccccc3)OC2=O)cc1 |
| 46 to 48 | CC(C)(C)c1ccc(-c2noc(CCl)n2)cc1 |
| 297 to 299 | O=C(O)c1ccc(Br)c(C(=O)O)c1 |
| 52.5 to 53 | COc1ccc(/C(C)=C/C(C)=O)cc1 |
| 68 | O=C(OCc1ccccc1)N1CCC(CBr)CC1 |
| 170 | C=Cc1ccc(C(N)=O)cc1 |
| 106 to 108 | OCc1ccc2nccn2c1 |
| 296 | Nc1c(C(=O)O)ccc2c1C(=O)c1ccccc1C2=O |
| 30 to 32 | C#CC(C)(C)Oc1ccc(C#N)cc1 |
| 242 to 244 | Nc1ccc(C2=NNC(=O)CC2)cc1 |
| 263 | NC(=O)/C(=C\c1ccc(Cl)cc1Cl)c1nc2ccccc2s1 |

| melting point [°C] | Compound |
| --- | --- |
| 104 to 106 | Cc1ccccc1CCC(=O)O |
| 64 to 65 | Cc1nc(-c2ccc(C(F)(F)F)cc2)sc1CBr |
| 83 to 87 | CC(C)(C)OC(=O)N1CCN(c2ccc(CN)cc2)CC1 |
| 114 | CC(C)(C)OC(=O)CN=C(c1ccccc1)c1ccccc1 |
| 64 | CC(=O)c1csc2ccccc12 |
| 176 to 178 | O=C(O)c1cccc2ccsc12 |
| 174 to 176 | Nc1cc(-c2ccc(Cl)cc2)n[nH]1 |
| 278 | Nc1ccc([N+](=O)[O-])cc1C(=O)O |
| 115 | O=C(Oc1ccc(OC(=O)c2ccccc2)cc1)c1ccccc1 |
| 58 to 60 | COc1ccc(C(=O)CCCCl)c(OC)c1 |
| 282 to 284 | O=C(Nc1nnc(-c2ccc(Cl)cc2)o1)c1ccc(F)cc1 |
| 270 | O=C(Nc1ccc(Cl)cc1)Nc1ccc(Cl)cc1 |
| 130 | O=C(O)Cc1cccc(I)c1 |
| 138 to 143 | Cc1cccc(NC(N)=O)c1 |
| 187 to 190 | COc1cccc(OC)c1C(=O)O |
| -23 | O=C1C=C(c2ccccc2)CC1 |
| 285 to 287 | O=C1CCC(c2ccc(NC(=O)c3ccc(F)cc3)cc2)=NN1 |
| 56 | COC(=O)C(C)Oc1ccc(Oc2ncc(C(F)(F)F)cc2Cl)cc1 (configuration not stated) |
| 55 | O=C(CBr)c1ccccc1[N+](=O)[O-] |
| 270 to 273 | COc1cc(C=C2C(=O)NC(=N)N2C)ccc1O |
| 133 to 135 | O=C(CCc1ccc(O)cc1)ON1C(=O)CCC1=O |

More lines, now with the values behind:

| Compound | melting point [°C] |
| --- | --- |
| CN(C)C=C[N+](=O)[O-] | 103 to 105 |
| O=[N+]([O-])c1cc([N+](=O)[O-])c(C(/C(=N/Nc2ccccc2)c2ccccc2)c2ccccc2)cc1Cl (configuration not stated) | 195 to 196 |
| CCOC(=O)[C@H](CCc1ccccc1)N[C@@H](C)C(=O)O | 148 to 153 |
| CCOC(=O)c1cc2c(=O)oc3ccccc3c2n(C)c1=O | 202 to 203 |
| Nc1cc(N)c(/C=C/c2ccccc2)c([N+](=O)[O-])c1C=Cc1ccccc1 | 175 |
| ClCc1cc(-c2ccccc2)on1 | 48 to 49 |
| CNC(=O)c1cc(C)cc(Cl)c1NC(=O)c1cc(Br)nn1-c1ncccc1Cl | 209 |
| CSc1nc2[nH]c(=S)n(-c3ccccc3C(=O)O)c(=O)c2n1C | 284 |
| CCCCNC | -75 |
| CC(C)(O)CCl | -20 |
| SC1=NNC(c2ccccn2)S1 (configuration not stated) | 114 to 116 |
| CCCCC(CC)C(=O)O (configuration not stated) | -59 |
| ON=C1CCCc2nnc3c(c21)CCCC3 | 269 to 271 |
| CCOC(=O)C1Cc2cc3c(cc2NC1=O)NC(=O)C(C(=O)OCC)C3 (configuration not stated) | 242 |
| CCNc1cc(O)ccc1C | 88 |
| COc1cc(N)c2ncccc2c1 | 52 |
| S=C(NCCN1CCOCC1)NC1CCCCC1 | 125 to 126 |
| COC(=O)CCc1cccc(CCC(=O)OC)c1 | 51 |
| CCCCCCCCCCCCCCCc1cccc(O)c1 | 53.5 |
| Cc1cc(C)c(N=C=O)c(C)c1 | 44.5 |
| CC1Cc2ccccc2N1 (configuration not stated) | -51 |
| Cc1ccccc1N=O | 73.5 |

| Compound | melting point [°C] |
| --- | --- |
| CC(=O)OC[C@H]1O[C@@H](OC(C)=O)[C@H](NC(=O)OCc2ccccc2)[C@@H](OC(C)=O)[C@@H]1OC(C)=O | 150 |
| Cn1ncc(Br)c1C=O | 70 |
| COc1cc(C(=O)NCc2ccc(OCCN(C)C)cc2)cc(OC)c1OC | 189 |
| CC(C)(O)CCCC1=CCC(C=O)CC1 (configuration not stated) | -30 |
| CC(C)(C)C(O)C(Oc1ccc(-c2ccccc2)cc1)n1cncn1 (single isomer, unassigned; stereoisomer a) | 139 |
| O=C(c1noc(-c2ccc(Cl)cc2)c1S(=O)(=O)c1ccccc1)c1cccc2ccccc12 | 169 |
| O=[N+]([O-])c1cccnc1N1CCN(CCO)CC1 | 82 to 83 |
| COc1c(F)c(F)cc(C(=O)O)c1F | 115 |
| COc1cc(Br)cc(C=O)c1O | 129 to 131 |
| COC(=O)C1=C(C)NC(=O)NC1c1ccc2c(c1)OCO2 (configuration not stated) | 239 to 241 |
| OCC(F)(F)C(F)(F)C(F)(F)C(F)(F)C(F)(F)C(F)(F)C(F)(F)F | 43 to 47 |
| CC(C)=C1OC(=O)C1(C)C | -18 |
| NC(=O)NC(CC(=O)O)C(=O)O (racemic) | 174 to 175 |
| Cn1c(=O)oc(=O)c2ccccc21 | 165 |
| CCCC(=O)Cl | -89 |
| Cc1ccc(S(=O)(=O)NCCN(CCN(CCNS(=O)(=O)c2ccc(C)cc2)S(=O)(=O)c2ccc(C)cc2)S(=O)(=O)c2ccc(C)cc2)cc1 | 112 |
| COc1ccc(-c2nc(CCl)no2)cc1 | 60 to 62 |
| C#CC1(O)CCC2C3CCC4CC(O)CCC4(C)C3CCC21C (configuration not stated) | 257 |
| CC12CC3CC(C)(C1)CC(C(=O)O)(C3)C2 | 101 |
| CC(C)(C1CCCCC1)C1CCCCC1 | 15.6 |
| ClCc1noc(-c2ccccc2)n1 | 64 |
| c1ccc(N2CSc3nnc(-c4cccnc4)n3C2)nc1 | 278 to 280 |

| Compound | melting point [°C] |
| --- | --- |
| CN1CC(=O)NC1=N | 255 |
| CC1(C)C=Cc2c(ccc3c2OC2c4ccc(O)cc4OCC32)O1 (configuration not stated) | 178 |
| CN(C)c1ccc(/C=C(\C#N)c2nc(-c3cccc4ccccc34)cs2)cc1 | 128 |
| CC1(C)SC2C(NC(=O)C(N)c3ccccc3)C(=O)N2C1C(=O)O (configuration not stated) | 208 |
| CCOC(=O)c1nn(-c2ccc(C)cc2)c(C)c1C(=O)C1=NOC2C(=O)N(c3ccc(C(=O)O)cc3)C(=O)C12 (configuration not stated) | 281 |
| O[C@@H]1C#CCCCCC#C[C@@H](O)CC1 | 154 |
| O=Cc1c(Br)sc2ccc(Cl)cc12 | 139 to 140 |
| O=[N+]([O-])c1ccc(-c2nc(-c3ccccc3)c(-c3ccccc3)[nH]2)cc1 | 243 to 246 |
| O=Cc1cccc(N2CCOCC2)n1 | 93 to 95 |
| CC(C)(C)P(c1ccc2ccccc2c1-c1cccc2ccccc12)C(C)(C)C | 147 to 149 |
| O=C(OC1CCCCC1)C(=O)OC1CCCCC1 | 43.5 |
| OCCN(CCO)c1ccc(N=Nc2ccccc2)cc1 | 134 |
| CC1=CC2OC1C(Cl)(Cl)C(=O)C2(Cl)Cl (configuration not stated) | 90 to 90.5 |
| CCCCCCCCCCCCCC(=O)Oc1ccc(N=Cc2cccnc2)cc1 | 82.7 |
| CCOc1c(NN(C)C)c(=O)c1=O | 130 to 132 |
| Cc1nc2sccn2c1C(=O)O | 164 to 165 |
| CCOC(=O)C(F)(F)F | -78 |
| Cn1c(C(F)(F)F)n[nH]c1=S | 116 to 118 |
| CC(C)CCCCCCCO | 5 |
| C#CCC1(OC(N)=O)CCCCC1 | 99 |
| COC(=O)C1(S(=O)(=O)c2ccccc2)CCCCC1 | 114 |
| N#CC(C#N)=C(SCc1ccccc1)SCc1ccccc1 | 82 |

| Compound | melting point [°C] |
| --- | --- |
| CON=C(C(=O)Sc1nc2ccccc2s1)c1csc(N)n1 | 126 to 130 |
| CN(C(=O)CN(CCO)CC(=O)N(C)C(C)(C)Cc1ccccc1)C(C)(C)Cc1ccccc1 | 104 |
| CC12CCC(C(=O)C1)C2(C)C (configuration not stated) | 186 |
| Cc1cnnc2ccc3nonc3c12 | 171 to 173 |
| COc1cccc(OCc2ccccc2)c1C#N | 70 to 72 |
| N#CC(c1ccccc1)N1CCCCC1 (configuration not stated) | 62 to 63 |
| CCOO | -100 |
| O=[N+]([O-])c1cncn1CCN1CCOCC1 | 110 |
| Cc1ccc(C)c(O)c1C | 58 |
| O=[N+]([O-])c1ccc2c(c1)c(CO)cn2Cc1ccccc1 | 104 to 106 |
| CC(C)(C)c1cc(C(=S)Nc2ccccc2)cc(C(C)(C)C)c1O | 227 to 228 |
| OCCN1CCN(Cc2ccc(F)cc2)CC1 | 55 to 56 |
| CC(C(=O)O)C1CCC2C3CCC4CC(=O)CCC4(C)C3CCC12C (configuration not stated) | 253 |
| O=C(O)COc1c(F)c(F)c(F)c(F)c1F | 109 |
| Cc1ccc(F)c(CO)c1Cl | 69 |
| C#CC(C)(C)Cl | -61 |
| CC(C)CC(C)Br (configuration not stated) | -94 |
| O=C(Cl)c1cccnc1Cl | 40 |
| CCOC(=O)C(=NNc1ccccc1[N+](=O)[O-])C(=O)OCC | 196 |
